Laboratory results taken from patent US20260137661A1, “PPAR-ALPHA/GAMMA AGONIST FOR USE IN THE TREATMENT OF LIVER FAILURE” (Genfit, priority 2022, published 2026).

Assays:
HepG2 cell line = assay: Staurosporine-induced apoptosis in HepG2 cells: caspase 3/7 activity; assay type: cell-based; conditions: Homo sapiens, 16 h pre-treatment, then 10 μM staurosporin for 4 h, p<0.001
Description: In order to evaluate the effect of the compounds to protect hepatocytes from cell death, apoptosis was induced by staurosporine in the human hepatoblastoma-derived HepG2 cell line (ECACC, #85011430, Sigma-Aldrich). HepG2 was cultured in high-glucose DMEM medium (#41965, Gibco, France) supplemented with 10% of fetal bovine serum (FBS, #10270, Gibco), 1% penicillin/streptomycin (#15140, Gibco), 1% sodium pyruvate (#11360, Gibco) and 1% MEM non-essential amino acids (#11140, Gibco) in a 5% CO2 incubator at 37° C.
To evaluate caspase 3/7 activity, which is a surrogate marker of apoptosis, 1.5×10^4 cells were plated in a 384-well plate (#781080, Greiner, France). After cell adherence (8 hours), cells were serum starved for 16h in the presence of compounds (dose ranging from 0.3 to 10 µM) or vehicle. Thereafter, cells were treated with 10 μM staurosporin (#569397, Sigma-Aldrich, Germany) supplemented with compound for additional 4 hours before cell lysis and caspase activity measurement.
Caspase 3/7 activity was measured using Caspase Glow™ 3/7 assay (#G8093, Promega, USA). Luminescence was measured using a Spark microplate reader (#30086376, Tecan, USA). The amount of luminescence (RLU) directly correlates with caspase 3/7 activity.

C57BL/6J male mice = assay: LPS/GalN mouse model of acute liver failure: serum hepatic markers and cytokines; assay type: in vivo; conditions: 1 mg/kg/day oral gavage for 3 days before LPS/GalN injection, serum 6 h after LPS/GalN, vs vehicle
From the text: Low doses of LPS in combination with the hepatotoxic agent D-Galactososamine (GalN) promote specific liver injury in mice and induce the inflammatory cytokines production, thus recapitulating the clinical picture of acute liver injury in human (Pourcet et al., Gastroenterology, 2018, 154 (5), p 1449-1464.e20). Hepatic injury induced by LPS/GalN is therefore a widely used mouse model to evaluate the effect of pharmacological agents on acute liver failure.
To evaluate the efficacy of the compounds on liver injury and function and the inflammatory response occurring upon acute liver failure, C57BL/6J male mice (8 weeks old, Janvier Labs) received an intraperitoneal injection of 0.025 mg/kg LPS (Escherichia coli 0111: B4, #L2630, Sigma-Aldrich) supplemented with 700 mg/kg D-Galactosamine (GalN, G0500, Sigma-Aldrich).
Cpd.1 (1 mg/kg/day) or vehicle (carboxymethylcellulose 1%, 0.1% Tween 80) was administered by oral gavage during the three days before LPS/GalN injection (n=10-12 per group). Mice were sacrificed 6h after LPS/GalN injection. Blood samples were obtained from retro-orbital sinus puncture on animals slightly asleep with isoflurane (Isoflurin 1000 mg/g, GTIN 03760087152678, Axience) just before sacrifice. A group of mice (n=4) received an intraperitoneal injection to be used as healthy controls.
Serum aspartate aminotransferase (ASAT) was measured using Randox kit for Daytona Plus automate (AS 8306) according to the manufacturer recommendation. ASAT enzymatically transforms alpha-oxoglutarate and L-aspartate into L-glutamate and oxaloacetate. In the presence of NADH, the generated oxaloacetate is converted by malate dehydrogenase to form L-malate and NAD+. The kinetics of the reaction is studied and allows the concentration of ASAT to be calculated.
Serum alanine aminotransferase (ALAT) was measured using Randox kit for Daytona Plus automate (AL 8304) according to the manufacturer recommendation. ALAT enzymatically transforms alpha-oxoglutarate and L-alanine into L-glutamate and pyruvate. In the presence of NADH, the generated pyruvate is converted by lactate dehydrogenase to form L-lactate and NAD+. The kinetics of the reaction is studied and allows the concentration of ALAT to be calculated.
Serum total bilirubin was measured using Randox kit for Daytona Plus automate (BR 8377) according to the manufacturer recommendation. The bilirubin is oxidized by vanadate at about pH 2.9 to produce biliverdin. In the presence of detergent and vanadate, both conjugate and unconjugated bilirubin are oxidized. This oxidation reaction causes a decrease in the optical density of the yellow color, which is specific to bilirubin. The decrease in optical density at 450/546 nm is proportional to the total bilirubin concentration in the sample.
Serum total bile acids were measured using Randox kit for Daytona Plus automate (BI 3863) according to the manufacturer recommendation. In the presence of Thio-NAD, the enzyme 3-α-hydroxysteroid dehydrogenase (3-α-HSD) converts bile acids to 3-keto steroids and Thio-NADH. In the presence of excess NADH, the enzyme cycling occurs efficiently and the rate of formation of Thio-NADH is determined by measuring specific change of absorbance at 405 nm.
The concentration of serum interleukin-6 (IL6) was determined using a multiplex sandwich ELISA system (Mouse Magnetic Luminex #LSXAMSM-06, Biotechne) according to the manufacturer instructions. […] After washing, IL6 was detected through the addition of biotinylated antibodies. […]

Row | Compound | inhibition at 3 µM (HepG2 cell line; 3 μM compound) [%] | inhibition at 10 µM (HepG2 cell line; 10 μM compound) [%] | reduction of total bilirubin (C57BL/6J male mice; p=0.003) [%] | reduction of total bile acids (C57BL/6J male mice; p=0.004) [%] | change of pro-inflammatory cytokine IL6 (serum) (C57BL/6J male mice; p=0.01) [%] | decrease of serum ASAT (C57BL/6J male mice; p=0.01) [%] | decrease of serum ALAT (C57BL/6J male mice; p=0.03) [%]
1 | COc1ccc(OC(=O)N(CC(=O)O)Cc2ccc(OCCc3nc(-c4ccccc4)oc3C)cc2)cc1 [Cpd.2, N-[(4-methoxyphenoxy)carbonyl]-N-[[4-[2-(5-methyl-2-phenyl-4-oxazolyl)ethoxy]phenyl]methyl]glycine] | 24 | – | – | – | – | – | –
2 | CCO[C@@H](Cc1ccc(OCCc2ccc(OS(C)(=O)=O)cc2)cc1)C(=O)O [Cpd. 1, (S)-2-ethoxy-3-(4-(4-((methylsulfonyl)oxy)phenethoxy)phenyl) propanoic acid] | – | 12 | 73 | 79 | −78 | 66 | 57
